From ChEMBL document CHEMBL1201862, “PubChem BioAssay data set” (2004) come the findings set out here.

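In this assay, cells in 96-well plates receive the compound at five concentrations for 48 hours. Endpoints are linearly interpolated between the surrounding concentrations. The concentration for 50% growth inhibition is given as GI50.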 Active and inactive are the calls of the source. Rule as the data show it: active = GI50 up to about 1.1 µM and inactive = higher.

Some test systems named below: 786-0; OVCAR-3; COLO 205; T47D; HT-29; A549; SK-OV-3; LOX IMVI; HCT-15; NCI/ADR-RES; NCI-H23; SW-620; MDA-N; NCI-H460; NCI-H226; SR; HCC 2998; SN12C; SF-295; HOP-92.
What all share (assay): DTP human tumour cell line panel, 48 h

For `OC1(c2ccccc2)c2ccccc2N=C2NCCN21` (stereo not given), the GI50 is 72.9 µM (inactive) with 786-0; > 100 µM (inactive) in the test with OVCAR-3; 32.9 µM (inactive) with COLO 205; 65.6 µM (inactive) in the test on T47D; 74.6 µM (inactive) in the test with HT-29; > 100 µM (inactive) with A549. For the same compound, the GI50 was > 100 µM (inactive) in the test with SK-OV-3; 23.4 µM (inactive) in the test on LOX IMVI; 93.1 µM with HCT-15; > 100 µM (inactive) in the test with NCI/ADR-RES; 60 µM (inactive) in the test on NCI-H23; 84.7 µM (inactive) with SW-620. In addition, the GI50 in the test on MDA-N was 35.6 µM (inactive); with NCI-H460, 56.4 µM (inactive); with NCI-H226, > 100 µM (inactive); with SR, 0.192 µM (active); in the test with HCC 2998, 16.3 µM (inactive); in the test on SN12C, 82.8 µM (inactive). Also, the results for the GI50 in the test with SF-295 and in the test with HOP-92 were 57.5 µM (inactive) and 54.5 µM (inactive), respectively.

On to `COc1ccc(C[C@H]2COC(=O)[C@@H]2Cc2cc(OC)c(OC)c(OC)c2)cc1OC`, for which the GI50 in the test with 786-0 was > 100 µM (inactive); in the test on OVCAR-3, > 89.1 µM (inactive); in the test on COLO 205, > 100 µM (inactive); with T47D it was 17.9 µM (inactive); with HT-29, > 100 µM (inactive); in the test with A549, > 100 µM (inactive). The GI50 with SK-OV-3 is > 100 µM (inactive); in the test with LOX IMVI, > 74.1 µM (inactive); with HCT-15 it was above 100 µM; with NCI/ADR-RES it was 41.1 µM (inactive); in the test on NCI-H23, 99.3 µM (inactive); in the test with SW-620, > 100 µM (inactive). Moreover, the GI50 with MDA-N is 78.7 µM (inactive); in the test on NCI-H460, > 100 µM (inactive); in the test with NCI-H226, > 34.4 µM (inactive); in the test with SR it was 5.9 µM (inactive); in the test with HCC 2998, > 81.7 µM (inactive); in the test on SN12C, > 100 µM (inactive). Moreover, the GI50 with SF-295 is > 100 µM (inactive); in the test on HOP-92, 16 µM (inactive).

For the compound `O=C1C(c2cnc3ccccc3n2)=C(O)c2ccccc21`, the GI50 with 786-0 was 84.3 µM (inactive); with OVCAR-3 it was > 100 µM (inactive); in the test on COLO 205, 43.2 µM (inactive); with T47D, 83.6 µM (inactive); in the test on HT-29, > 74.1 µM (inactive); in the test on A549, > 81.8 µM (inactive). The GI50 in the test with SK-OV-3 was > 46.5 µM (inactive); in the test on LOX IMVI, 47.3 µM (inactive); in the test on HCT-15, 1.16 µM; with NCI/ADR-RES it was > 100 µM (inactive); in the test on NCI-H23, > 100 µM (inactive); in the test with SW-620, > 56.2 µM (inactive). The GI50 in the test on MDA-N was > 61.4 µM (inactive); with NCI-H460, 6.9 µM (inactive); in the test on NCI-H226, > 100 µM (inactive); in the test with SR, > 59.7 µM (inactive); in the test on HCC 2998 it was 71.8 µM (inactive); in the test on SN12C, > 77.3 µM (inactive). For the same compound, the GI50 in the test with SF-295 is > 64 µM (inactive); in the test with HOP-92, > 100 µM (inactive).

Turning to `CC1=NN(C(=O)c2ccncc2)C(=O)C1`, the GI50 in the test with 786-0, in the test on OVCAR-3, in the test with COLO 205, in the test with T47D, in the test with HT-29 and in the test on A549 was > 100 µM (inactive) throughout. In addition, the GI50 in the test on SK-OV-3 was > 100 µM (inactive); in the test on LOX IMVI, > 100 µM (inactive); in the test on HCT-15, above 100 µM; in the test on NCI/ADR-RES, > 100 µM (inactive); with NCI-H23, > 100 µM (inactive); with SW-620 it was > 100 µM (inactive). The GI50 in the test on MDA-N is > 100 µM (inactive); with NCI-H460, > 100 µM (inactive); with NCI-H226 it was > 100 µM (inactive); in the test with SR it was > 100 µM (inactive); with HCC 2998, > 100 µM (inactive); with SN12C, 29.2 µM (inactive). The GI50 in the test with SF-295 and in the test with HOP-92 was > 100 µM (inactive) in each case.

For `CC(C)(C)OC(=O)CC(NC(=O)OC(C)(C)C)C(=O)N[C@@H]1CCCC[C@H]1C(=O)OCc1ccccc1` (stereo not given in full), the GI50 with 786-0 is 70.6 µM (inactive); in the test with OVCAR-3, 28.9 µM (inactive); with COLO 205, 19.3 µM (inactive); in the test on T47D, 22.3 µM (inactive); in the test on HT-29 it was 17.2 µM (inactive); with A549, 25.2 µM (inactive). The GI50 with SK-OV-3 was 19.2 µM (inactive); with LOX IMVI, 29 µM (inactive); in the test on HCT-15 it was 14.8 µM; in the test on NCI/ADR-RES it was 33.3 µM (inactive); in the test on NCI-H23, 29.3 µM (inactive); in the test on SW-620, 37.5 µM (inactive). The GI50 with MDA-N is 32.1 µM (inactive); in the test with NCI-H460, 29.6 µM (inactive); in the test on NCI-H226, 26.4 µM (inactive); with SR, 29.2 µM (inactive); with HCC 2998, 20.6 µM (inactive); in the test with SN12C, 18.2 µM (inactive). The GI50 in the test on SF-295 was 24.7 µM (inactive); in the test on HOP-92 it was 53.2 µM (inactive).

With `[N-]=[N+]=NC1=C(N=[N+]=[N-])c2cccc3cccc(c23)C1=O`, the GI50 is > 100 µM (inactive) with 786-0; > 100 µM (inactive) in the test on OVCAR-3; > 100 µM (inactive) with COLO 205; > 100 µM (inactive) in the test with T47D; 76.7 µM (inactive) in the test on HT-29; > 100 µM (inactive) in the test on A549. In addition, the GI50 is > 100 µM (inactive) in the test with SK-OV-3; > 100 µM (inactive) with LOX IMVI; above 100 µM with HCT-15; > 100 µM (inactive) in the test with NCI/ADR-RES; > 100 µM (inactive) in the test with NCI-H23; 57.7 µM (inactive) with SW-620. The GI50 with MDA-N is < 0.01 µM (active); with NCI-H460 it was 58.9 µM (inactive); with NCI-H226, > 100 µM (inactive); with SR, 88.3 µM (inactive); with HCC 2998, > 100 µM (inactive); in the test on SN12C it was > 100 µM (inactive). The GI50 in the test with SF-295 and in the test on HOP-92 was > 100 µM (inactive) each time.

For `CC(C)Cn1cnc2c(NCC(C)O)nc3ccccc3c21` (stereo not given), the GI50 is > 100 µM (inactive) in the test with 786-0; > 100 µM (inactive) in the test with OVCAR-3; 51.1 µM (inactive) in the test with COLO 205; > 100 µM (inactive) with T47D; 36.6 µM (inactive) with HT-29; > 100 µM (inactive) with A549. In addition, the GI50 was > 100 µM (inactive) with SK-OV-3; 42.6 µM (inactive) in the test on LOX IMVI; 78.3 µM in the test on HCT-15; > 100 µM (inactive) in the test on NCI/ADR-RES; > 100 µM (inactive) in the test on NCI-H23; > 100 µM (inactive) with SW-620. Moreover, the GI50 was > 100 µM (inactive) with MDA-N; > 100 µM (inactive) with NCI-H460; > 100 µM (inactive) with NCI-H226; 84.5 µM (inactive) in the test with SR; > 100 µM (inactive) in the test with HCC 2998; > 100 µM (inactive) in the test on SN12C. Besides, the results for the GI50 with SF-295 and in the test with HOP-92 were > 100 µM (inactive) and 27.9 µM (inactive), respectively.

In general, GI50 refers to the concentration giving 50% growth inhibition.
